What was measured:
[1] = target: Phosphatidylinositol 4,5-bisphosphate 3-kinase catalytic subunit alpha isoform (Homo sapiens, UniProt P42336); assay: Inhibition of PI3K-alpha (unknown origin) by mobility shift assay
Mus musculus [2] = organism: Mus musculus; assay: animal or person; details: PC-3, po, 2 h, read-out: INH
PC-3 [3] = details: Homo sapiens, TDE = time-dependent effect
Mus musculus [4] = organism: Mus musculus; assay: animal or person; details: PC-3, po, 8 h, read-out: INH
Mus musculus [5] = organism: Mus musculus; assay: animal or person; details: PC-3, po, 4 h, read-out: INH
Mus musculus [6] = organism: Mus musculus; assay: animal or person; details: PC-3, po, 2 h, read-out: INH; remark: listed apart in the source
PC-3 [7] = assay: Antitumor activity against human PC3 cells xenografted in mouse assessed as tumor volume reduction at 50 mg/kg, po qd for 21 days relative to control; type: functional; parameters: scale not given: the % may be the effect or the level left
cells = details: Homo sapiens, PC-3, 1 h
Mus musculus [8] = organism: Mus musculus; assay: animal or person; details: PC-3, po, 24 h, read-out: INH
Mus musculus [9] = organism: Mus musculus; assay: animal or person; details: PC-3, po, 4 h, read-out: INH; remark: listed apart in the source
Mus musculus [10] = organism: Mus musculus; assay: animal or person; details: PC-3, po, 24 h, read-out: INH; remark: listed apart in the source
PC-3 [11] = details: Homo sapiens
Mus musculus [12] = organism: Mus musculus; assay: animal or person; details: PC-3, po, 8 h, read-out: INH; remark: listed apart in the source
[13] = Metabolic stability in rat S9 fraction assessed as compound remaining measured at 60 mins; type: ADME; details: read-out: Stability
[14] = AUC (0 to infinity) in rat at 5 mg/kg, po; type: ADME, organism-based; parameters: dose 5 mg/kg, time infinity, route oral; details: in vivo
[15] = Clearance in rat at 2 mg/kg, iv; type: ADME, organism-based; details: in vivo
[16] = Oral bioavailability in rat at 5 mg/kg; type: ADME, organism-based; details: in vivo
[17] = Tmax in rat at 5 mg/kg, po; type: ADME, organism-based; details: in vivo
[18] = Cmax in rat at 5 mg/kg, po; type: ADME, organism-based; parameters: dose 5 mg/kg, route oral; details: in vivo
[19] = target: Serine/threonine-protein kinase mTOR (Homo sapiens, UniProt P42345); assay: Inhibition of recombinant mTOR (unknown origin) using GST-p70S6 as substrate after 60 mins by TR-FRET analysis
PC-3 [20] = assay: Cytotoxicity against human PC3 cells assessed as inhibition of cell proliferation after 3 days by WST1 assay; type: functional, cell-based; details: PC-3, 72 h
[21] = Inhibition of mTORC2 in human PC3 cells assessed as inhibition of AKT phosphorylation at S473 by sandwich immunoassay; type: cell-based; details: PC-3
[22] = Cmax in rat at 10 mg/kg, po; type: ADME, organism-based; parameters: dose 10 mg/kg, route oral; details: in vivo
[23] = Oral bioavailability in rat at 10 mg/kg; type: ADME, organism-based; details: in vivo
[24] = Tmax in rat at 10 mg/kg, po; type: ADME, organism-based; details: in vivo
[25] = AUC (0 to infinity) in rat at 10 mg/kg, po; type: ADME, organism-based; parameters: dose 10 mg/kg, route oral, time infinity; details: in vivo
PC-3 [26] = assay: Antitumor activity against human PC3 cells xenografted in mouse assessed as tumor volume reduction at 100 mg/kg, po bid with 10 hrs separation between morning and evening doses for 21 days relative to control; type: functional; parameters: scale not given: the % may be the effect or the level left
PC-3 [27] = details: Homo sapiens, TDE = time-dependent effect; remark: listed apart in the source
PC-3 [28] = details: Homo sapiens; remark: listed apart in the source
[29] = Inhibition of CYP450 (unknown origin) up to 10 uM; type: ADME; details: human
PC-3 [30] = assay: Antitumor activity against human PC3 cells xenografted in mouse assessed as tumor volume reduction at 25 mg/kg, po qd for 21 days relative to control; type: functional; parameters: scale not given: the % may be the effect or the level left
PC-3 [31] = details: Homo sapiens, TDE = time-dependent effect; remark: listed apart in the source
[32] = Genotoxicity in mouse erythrocytes by micronucleus test; type: toxicity, cell-based; details: erythrocyte
[33] = target: Vascular endothelial growth factor receptor 3 (Homo sapiens, UniProt P35916); assay: Inhibition of Flt4 (unknown origin)
Sequence of Vascular endothelial growth factor receptor 3 (P35916 whole entry): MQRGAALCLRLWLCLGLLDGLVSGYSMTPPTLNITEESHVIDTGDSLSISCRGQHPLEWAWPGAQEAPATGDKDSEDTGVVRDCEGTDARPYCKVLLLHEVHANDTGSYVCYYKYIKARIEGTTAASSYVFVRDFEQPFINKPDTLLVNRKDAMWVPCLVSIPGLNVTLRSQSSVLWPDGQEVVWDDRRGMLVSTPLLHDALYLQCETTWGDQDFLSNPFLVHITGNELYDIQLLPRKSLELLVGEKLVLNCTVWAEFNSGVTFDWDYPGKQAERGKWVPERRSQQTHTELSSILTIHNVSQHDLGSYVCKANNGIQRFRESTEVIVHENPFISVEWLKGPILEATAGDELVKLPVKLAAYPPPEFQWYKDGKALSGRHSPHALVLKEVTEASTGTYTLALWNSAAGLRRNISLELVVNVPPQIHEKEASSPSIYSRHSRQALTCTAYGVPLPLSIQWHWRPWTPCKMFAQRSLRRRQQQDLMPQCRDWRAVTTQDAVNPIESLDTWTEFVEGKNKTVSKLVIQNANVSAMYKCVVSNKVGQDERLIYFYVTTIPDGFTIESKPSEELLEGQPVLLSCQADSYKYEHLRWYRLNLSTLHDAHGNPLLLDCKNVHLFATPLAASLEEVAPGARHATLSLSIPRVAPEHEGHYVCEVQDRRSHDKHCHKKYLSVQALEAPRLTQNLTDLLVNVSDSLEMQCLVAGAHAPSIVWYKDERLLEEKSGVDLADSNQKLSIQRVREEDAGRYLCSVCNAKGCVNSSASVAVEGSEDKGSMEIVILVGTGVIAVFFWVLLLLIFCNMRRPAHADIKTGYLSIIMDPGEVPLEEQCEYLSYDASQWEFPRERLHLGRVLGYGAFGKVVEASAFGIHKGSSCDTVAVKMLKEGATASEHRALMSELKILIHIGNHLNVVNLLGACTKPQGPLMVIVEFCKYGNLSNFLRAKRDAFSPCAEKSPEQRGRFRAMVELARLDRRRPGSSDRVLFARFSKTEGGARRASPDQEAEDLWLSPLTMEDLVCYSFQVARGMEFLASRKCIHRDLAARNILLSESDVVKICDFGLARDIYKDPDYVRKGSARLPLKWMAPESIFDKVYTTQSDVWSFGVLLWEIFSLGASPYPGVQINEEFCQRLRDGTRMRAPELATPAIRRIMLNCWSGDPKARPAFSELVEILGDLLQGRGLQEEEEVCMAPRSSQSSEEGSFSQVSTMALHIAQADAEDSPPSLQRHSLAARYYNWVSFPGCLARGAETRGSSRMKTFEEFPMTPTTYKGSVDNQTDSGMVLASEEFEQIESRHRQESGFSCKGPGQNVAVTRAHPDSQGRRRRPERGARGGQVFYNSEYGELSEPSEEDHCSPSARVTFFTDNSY

Salmonella typhi = assay: Mutagenicity in Salmonella typhi by Ames test; type: toxicity, organism-based; details: salmonella enterica subsp. enterica serovar […]

Sequence of Phosphatidylinositol 4,5-bisphosphate 3-kinase catalytic subunit alpha isoform (P42336 whole entry, canonical isoform): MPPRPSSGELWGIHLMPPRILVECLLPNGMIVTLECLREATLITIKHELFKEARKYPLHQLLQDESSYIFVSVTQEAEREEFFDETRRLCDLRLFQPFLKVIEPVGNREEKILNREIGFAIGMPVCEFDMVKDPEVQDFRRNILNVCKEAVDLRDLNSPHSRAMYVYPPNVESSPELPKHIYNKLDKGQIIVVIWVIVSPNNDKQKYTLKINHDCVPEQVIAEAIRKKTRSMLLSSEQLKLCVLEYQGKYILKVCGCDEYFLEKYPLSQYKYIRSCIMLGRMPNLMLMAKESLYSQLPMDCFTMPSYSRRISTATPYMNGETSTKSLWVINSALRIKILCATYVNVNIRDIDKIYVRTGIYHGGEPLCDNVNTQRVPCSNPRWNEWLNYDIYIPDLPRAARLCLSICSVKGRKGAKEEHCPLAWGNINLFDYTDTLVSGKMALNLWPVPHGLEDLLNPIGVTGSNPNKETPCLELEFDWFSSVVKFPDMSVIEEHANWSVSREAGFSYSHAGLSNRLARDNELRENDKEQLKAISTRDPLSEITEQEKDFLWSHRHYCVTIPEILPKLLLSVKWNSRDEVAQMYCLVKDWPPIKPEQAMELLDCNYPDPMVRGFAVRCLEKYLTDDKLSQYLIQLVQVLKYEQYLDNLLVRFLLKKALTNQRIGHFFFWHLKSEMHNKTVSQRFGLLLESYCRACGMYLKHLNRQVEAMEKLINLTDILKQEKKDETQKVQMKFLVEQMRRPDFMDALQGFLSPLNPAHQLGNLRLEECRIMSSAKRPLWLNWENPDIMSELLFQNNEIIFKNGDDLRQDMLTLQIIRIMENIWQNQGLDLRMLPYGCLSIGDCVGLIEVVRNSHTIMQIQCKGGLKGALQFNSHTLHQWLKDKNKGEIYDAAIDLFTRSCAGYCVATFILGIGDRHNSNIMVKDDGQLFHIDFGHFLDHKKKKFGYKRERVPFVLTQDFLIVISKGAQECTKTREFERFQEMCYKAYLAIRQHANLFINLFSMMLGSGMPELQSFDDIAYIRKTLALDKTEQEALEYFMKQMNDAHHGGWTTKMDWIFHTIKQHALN

Structure (SMILES) | IC50 [1] [nM] | inhibition in vivo at 100 mg/kg (Mus musculus [4]) [%] | inhibition in vivo at 100 mg/kg (Mus musculus [5]) [%] | IC50 (cells) [nM] | inhibition in vivo at 100 mg/kg (Mus musculus [8]) [%] | inhibition in vivo at 100 mg/kg (Mus musculus [9]) [%] | inhibition in vivo at 100 mg/kg (Mus musculus [10]) [%] | inhibition in vivo at 100 mg/kg (Mus musculus [12]) [%] | remaining at 1 h [13] [%] | AUC(0-inf) [14] [µM·h] | Cmax [18] [nM] | other results
CC(C)(O)c1ccc(-c2cnc3c(n2)N(C2CCOCC2)C(=O)CN3)cn1 | 3200 | – | – | – | – | – | – | – | – | – | – | –
CC(C)(O)c1ccc(-c2cnc3c(n2)N([C@H]2CC[C@@H](O)CC2)C(=O)CN3)cn1 | 2800 | – | – | – | – | – | – | – | – | – | – | –
CC(C)(O)c1ccc(-c2cnc3c(n2)N(CC2CCOCC2)CC(=O)N3)cn1 | > 30000 | 88 | 86 | 320 | 65 | 73 | 83 | 71 | 100 | – | – | inhibition in vivo at 100 mg/kg (Mus musculus [2]): 85%; TGI (PC-3 [3]): tde; inhibition in vivo at 100 mg/kg (Mus musculus [6]): 88%; Activity (PC-3 [7]): 84%; TGI (PC-3 [11]): Dose-dependent effect
Cc1cc(-c2nc[nH]n2)ccc1-c1cnc2c(n1)N(CCC1CCOCC1)C(=O)CN2 | 120 | – | – | – | – | – | – | – | – | – | – | –
CC(C)(O)c1ccc(-c2cnc3c(n2)N(CCC2CCOCC2)C(=O)CN3)cn1 | – | 88 | 80 | 90 | 69 | 63 | 59 | 78 | 73 | 14 | 1700 | inhibition in vivo at 100 mg/kg (Mus musculus [2]): 82%; TGI (PC-3 [3]): tde; clearance [15]: 9 mL/min/kg; inhibition in vivo at 100 mg/kg (Mus musculus [6]): 71%; Activity (PC-3 [7]): 59%; bioavailability [16]: 58%; TGI (PC-3 [11]): Dose-dependent effect; Tmax [17]: 36 min
CC(C)(O)c1ccc(-c2cnc3[nH]c(=O)n(CCC4CCOCC4)c3n2)cn1 | > 30000 | – | – | – | – | – | – | – | 91 | 4.8 | 1800 | IC50 [19]: 64 nM; IC50 (PC-3 [20]): 2360 nM; clearance [15]: 15 mL/min/kg; bioavailability [16]: 43%; IC50 [21]: 638 nM; Tmax [17]: 30 min
O=C1CNc2ncc(-c3ccc(-c4ncn[nH]4)cc3)nc2N1CCC1CCOCC1 | 100 | – | – | – | – | – | – | – | 48 | – | – | –
CC(C)(O)c1ccc(-c2cnc3c(n2)N(CC2CCOCC2)C(=O)CN3)cn1 | 3800 | 94 | 93 | 130 | 80 | 86 | 91 | 81 | 83 | 9.9 | 1600 | –
COCCN1C(=O)CNc2ncc(-c3ccc(C(C)(C)O)nc3)nc21 | 6200 | 91 | 82 | 610 | 77 | 87 | 91 | 84 | 89 | 29 | 5600 | –
O=c1[nH]c2ncc(-c3ccc(-c4nc[nH]n4)cc3)nc2n1CCC1CCOCC1 | – | – | – | – | – | – | – | – | 93 | – | – | Cmax [22]: 24 nM; clearance [15]: 32 mL/min/kg; bioavailability [23]: 0.85%; Tmax [24]: 60 min; AUC(0-inf) [25]: 0.11 µM·h
CO[C@H]1CC[C@H](CN2C(=O)CNc3ncc(-c4ccc(C(C)(C)O)nc4)nc32)CC1 | 4700 | – | – | – | – | – | – | – | 55 | – | – | –
CO[C@H]1CC[C@@H](CN2CC(=O)Nc3ncc(-c4ccc(C(C)(C)O)nc4)nc32)CC1 | 7600 | – | – | – | – | – | – | – | 39 | – | – | –
CO[C@H]1CC[C@@H](N2CC(=O)Nc3ncc(-c4ccc(C(C)(C)O)nc4)nc32)CC1 | 11100 | 52 | 54 | 330 | 45 | 34 | 70 | 59 | – | 26.6 | 2770 | inhibition in vivo at 100 mg/kg (Mus musculus [2]): 72%; inhibition in vivo at 100 mg/kg (Mus musculus [6]): 80%
CC(C)(O)c1ccc(-c2cnc3c(n2)N(CC2CCCCC2)CC(=O)N3)cn1 | 17700 | – | – | – | – | – | – | – | 16 | – | – | –
CO[C@H]1CC[C@H](N2CC(=O)Nc3ncc(-c4ccc(C(C)(C)O)nc4)nc32)CC1 | 16400 | 85 | 90 | 350 | 61 | 62 | 85 | 69 | 94 | 90 | 6300 | inhibition in vivo at 100 mg/kg (Mus musculus [2]): 75%; TGI (PC-3 [3]): tde; clearance [15]: 1.7 mL/min/kg; inhibition in vivo at 100 mg/kg (Mus musculus [6]): 87%; Activity (PC-3 [7]): 90%; bioavailability [16]: 70%; TGI (PC-3 [11]): Dose-dependent effect
COCCN1CC(=O)Nc2ncc(-c3ccc(C(C)(C)O)nc3)nc21 | 10500 | – | – | – | – | – | – | – | – | – | – | –
CC(C)(O)c1ccc(-c2cnc3c(n2)N(C2CCOCC2)CC(=O)N3)cn1 | 4700 | – | – | – | – | – | – | – | – | – | – | –
Cc1cc(-c2nc[nH]n2)ccc1-c1cnc2c(n1)N(CCC1CCOCC1)CC(=O)N2 | 200 | – | – | – | – | – | – | – | – | – | – | –
CC(C)(O)c1ccc(-c2cnc3c(n2)N([C@H]2CC[C@H](O)CC2)C(=O)CN3)cn1 | 1900 | – | – | – | – | – | – | – | – | 9.23 | 2200 | –
CO[C@H]1CC[C@H](CN2CC(=O)Nc3ncc(-c4ccc(C(C)(C)O)nc4)nc32)CC1 | 20200 | 64 | 80 | 160 | 0 | 55 | 0 | 55 | 77 | 7.25 | 700 | –
CO[C@H]1CC[C@@H](CN2C(=O)CNc3ncc(-c4ccc(C(C)(C)O)nc4)nc32)CC1 | 2500 | – | – | – | – | – | – | – | – | – | – | –
O=C1CN(CCC2CCOCC2)c2nc(-c3ccc(-c4nc[nH]n4)nc3)cnc2N1 | 1600 | – | – | – | – | – | – | – | – | – | – | –
CC(C)(O)c1ccc(-c2cnc3c(n2)N(CCC2CCOCC2)CC(=O)N3)cn1 | – | 64 | 63 | 110 | 28 | 63 | 0 | 67 | 95 | 11 | 1500 | inhibition in vivo at 100 mg/kg (Mus musculus [2]): 74%; Activity (PC-3 [26]): 72%; clearance [15]: 23 mL/min/kg; TGI (PC-3 [27]): tde; inhibition in vivo at 100 mg/kg (Mus musculus [6]): 87%; TGI (PC-3 [28]): Dose-dependent effect; bioavailability [16]: 100%; Tmax [17]: 90 min
CO[C@H]1CC[C@H](N2C(=O)CNc3ncc(-c4ccc(C(C)(C)O)nc4)nc32)CC1 [ONATASERTIB] | – | 92 | 91 | – | 86 | 80 | 91 | 82 | – | 26 | 2900 | inhibition (INH) [29]: Not Active; Activity (PC-3 [30]): 87%; clearance [15]: 4.9 mL/min/kg; TGI (PC-3 [31]): tde; bioavailability [16]: 59%; TGI (PC-3 [11]): Dose-dependent effect; Activity [32]: Non-toxic; IC50 [33]: 651 nM; Activity (Salmonella typhi): Non-toxic
O=C1CN(CCC2CCOCC2)c2nc(-c3ccc(-c4nc[nH]n4)cc3)cnc2N1 | – | – | – | – | – | – | – | – | 61 | – | – | Cmax [22]: < 2.13 nM; clearance [15]: 13.8 mL/min/kg
